# Experimental data as given in patent US20200015498A1, “ANIMAL FEED WITH BETA ADRENERGIC AGONIST AND ISOQUINOLINE ALKALOID” (priority 2017, published 2020).
# How the values were obtained:
# Type in all cases: in vivo
# pigs [1] = experiment: Second experiment: 4 groups of 50 pigs fed different food and additive combinations for 4 weeks until slaughter day
# Description: In the second experimental test, 4 groups of 50 pigs were fed with different food and additive combinations for 4 weeks until slaughter day as presented in the table below. The Isoquinoline alkaloids in the feed of groups 2 and 3 mainly consisted of sanguinarine.
# pigs [2] = experiment: Third experiment: meat quality classes of 120 pigs per group fed for the last four weeks until slaughter day
# Description: The following table illustrates meat quality indicators obtained for 120 pigs fed for the last four weeks until slaughter day added with a beta adrenergic agonist at recommended dosages of 7.5 mg/kg feed and having a protein enriched feed formulation comparing to 120 other pigs fed during the same time period with the same feed which in addition the beta adrenergic agonist is also added with isoquinoline alkaloids like sanguinarin.
# (§1) In most countries of the world, the quality of the carcass (without innards and blood) is determined as of muscle area, fat mm at back, total analysis of fat content etc. for determining the price of the carcass per kg warm or cold carcass weight (depending on country). For this purpose, the animals are scanned in the slaughtering line by means of sensors or image-giving techniques, and the proportion of muscles and the thickness of the backbone are measured and converted into an equation which then calculates the proportion of lean meat in the entire carcass. In the EU, the carcasses can be assigned to different meat quality groups according to the following classification scheme: • S=Highest quality=>60.85% lean-meat • E=Premium Quality=58.75% lean-meat • U=High Quality=>55.9% lean-meat • R=Medium Quality=>53.9% lean-meat • O=Low Quality=>51.1% lean-meat • P=very low Quality=<51.1% lean-meat
# pigs [3] = experiment: Fourth experiment: 1500 pigs in four groups fed AFC1-AFC4, distribution in meat quality classes
# Description: as §1
# As a rule, during the last 4-week before slaughter day when beta adrenergic agonists are typically administered, an animal feed is administered which not only has a higher protein content but also a higher proportion of muscle-binding amino acids (e.g., lysine). For example, a manufacturer of a beta adrenergic agonist prescribes that the content of the limiting amino acid lysine and threonine in the feed must be about 30% higher than under “standard” conditions when the beta adrenergic agonist is administered. It is, however, known that only 30% of the amino acids added to the feed are resorbed and metabolized, the rest being lost.
# The test was performed with 1500 pigs divided into four groups 1-4, each group comprising 375 pigs. The pigs were held in 100 units of 15 animals per unit. Different groups of pigs were fed with feeds of different compositions. The following table illustrates meat quality indicators.
# (§2) The following animal feed compositions were administered: • AFC1: Corn, maize, soybean meal, vitamine, enzyme and mineral mixture comprising: 17% protein 0.8% lysine • AFC2: Corn, maize, Corn, maize, soybean meal, vitamine, enzyme and mineral mixture comprising: 17% protein, 0.8% lysine and 1 mg isoquinoline alkaloid/kg feed (mainly sanguinarine) • AFC3: Corn, maize, soybean meal, vitamine, enzyme and mineral mixture comprising: 19% protein, 1% lysine and a beta adrenergic agonist (ractopamin as “Paylean®” in recommended dosage (®=reg. trademark of Eli Lilly and Co.) • AFC4: Corn, maize, soybean meal, vitamine, enzyme and mineral mixture comprising: 17% protein, 0.9% lysine, 1 mg isoquinoline alkaloid (mainly sanguinarine)/kg feed and a beta adrenergic agonist (ractopamin as “Paylean®” Paylean in recommended dosage)
# pigs [4] = experiment: Fifth experiment: test four repeated with 1700 pigs of a different farm
# Description: as §1, §2
# Test four was repeated with 1700 pigs of a different farm divided into four groups 1-4, each group comprising 425 pigs. The pigs were held in units of 25 animals. Different groups of pigs were fed with feeds of different compositions as described for the fourth experiment. The following table illustrates meat quality indicators.
# pigs [5] = experiment: Sixth experiment: test four repeated with 1310 pigs of a further animal farm
# Description: as §1, §2
# Test four was repeated with 1310 pigs of a further animal farm divided into four groups 1-4, each group comprising 330 pigs. The pigs were held in 11 units of 30 animals. Different groups of pigs were fed with feeds of different compositions as described for the fourth experiment. The following table illustrates meat quality indicators.
# [6] = class E >58.75 % lean-meat, 120 pigs per group
# [7] = class O >51.10 % lean-meat, 120 pigs per group
# [8] = class P <51.10 % lean-meat, 120 pigs per group
# [9] = class R >53.90 % lean-meat, 120 pigs per group
# [10] = class U >55.90 % lean-meat, 120 pigs per group
# [11] = class O >51.1% lean-meat, feeds AFC2, AFC3, AFC4, control 4
# [12] = class P <51.1% lean-meat, feeds AFC2, AFC3, AFC4, control 0
structure (smiles),measurement,setting,value
CC(CCc1ccc(O)cc1)NCC(O)c1ccc(O)cc1 (stereo not drawn) [ractopamine],Feed conversion ratio,"pigs [1]; 4 weeks until slaughter, isoquinoline alkaloids 1 mg/kg feed and/or ractopamin 7.5 mg/kg feed, control 2.78",2.62
same,Daily weight gain,"pigs [1]; 4 weeks until slaughter, isoquinoline alkaloids 1 mg/kg feed and/or ractopamin 7.5 mg/kg feed, control 753",852 g
same,live mass at slaughter day,"pigs [1]; after 4 weeks, isoquinoline alkaloids 1 mg/kg feed and/or ractopamin 7.5 mg/kg feed, soybean 15% (group 2), 17% (group 3), 20% (group 4), control 118",125.5 kg
same,Fraction lean meat,"pigs [1]; at slaughter, isoquinoline alkaloids 1 mg/kg feed and/or ractopamin 7.5 mg/kg feed, control 54.95",58.5%
same,"performance (daily weight gain, feed utilization, lean meat content) compared with the control group, in words","pigs [1]; second experiment, groups 2-4 versus group 1",significantly improves performance and increases the lean meat content and the feed utilization
same,% of all pigs in meat quality class E,pigs [2]; [6],41%
same,Number of pigs in meat quality class E,pigs [2]; [6],49
same,% of all pigs in meat quality class O,pigs [2]; [7],1%
same,Number of pigs in meat quality class O,pigs [2]; [7],1
same,% of all pigs in meat quality class P,pigs [2]; [8],0%
same,Number of pigs in meat quality class P,pigs [2]; [8],0
same,% of all pigs in meat quality class R,pigs [2]; [9],6%
same,Number of pigs in meat quality class R,pigs [2]; [9],7
same,% of all pigs in meat quality class S,"pigs [2]; class S >60.85 % lean-meat, 120 pigs per group",33%
same,Number of pigs in meat quality class S,"pigs [2]; class S >60.85 % lean-meat, 120 pigs per group, ractopamin 7.5 mg/kg feed, protein enriched feed",40
same,% of all pigs in meat quality class U,pigs [2]; [10],19%
same,Number of pigs in meat quality class U,pigs [2]; [10],23
same,numbers of S and E carcass classes as highest value carcasses,"pigs [2]; third experiment, sum of classes S and E",74%
same,Distribution of slaughtered pigs in meat quality class E,"pigs [3]; class E >58.75% lean-meat, feeds AFC2, AFC3, AFC4, control 35",39%
same,Distribution of slaughtered pigs in meat quality class O,pigs [3]; [11],1%
same,Distribution of slaughtered pigs in meat quality class P,"pigs [3]; class P <51.1% lean-meat, feeds AFC2, AFC3, AFC4, control 1",0%
same,Distribution of slaughtered pigs in meat quality class R,"pigs [3]; class R >53.9% lean-meat, feeds AFC2, AFC3, AFC4, control 10",2%
same,Distribution of slaughtered pigs in meat quality class S,"pigs [3]; class S >60.85% lean-meat, Group 2 feed AFC2, Group 3 AFC3, Group 4 AFC4, 375 pigs per group, control 35",38%
same,Distribution of slaughtered pigs in meat quality class U,"pigs [3]; class U >55.9% lean-meat, feeds AFC2, AFC3, AFC4, control 15",20%
same,% of all pigs distributed in classes S and E,"pigs [3]; fourth experiment, control 70%",77%
same,Distribution of slaughtered pigs in meat quality class E,"pigs [4]; class E >58.75% lean-meat, feeds AFC2, AFC3, AFC4, control 30",35%
same,Distribution of slaughtered pigs in meat quality class O,pigs [4]; [11],2%
same,Distribution of slaughtered pigs in meat quality class P,pigs [4]; [12],0%
same,Distribution of slaughtered pigs in meat quality class R,"pigs [4]; class R >53.9% lean-meat, feeds AFC2, AFC3, AFC4, control 15",8%
same,Distribution of slaughtered pigs in meat quality class S,"pigs [4]; class S >60.85% lean-meat, Group 2 feed AFC2, Group 3 AFC3, Group 4 AFC4, 425 pigs per group, control 26",40%
same,Distribution of slaughtered pigs in meat quality class U,"pigs [4]; class U >55.9% lean-meat, feeds AFC2, AFC3, AFC4, control 25",15%
same,% of all pigs (carcasses classified as S and E quality),"pigs [4]; fifth experiment, control 56%",75%
same,Distribution of slaughtered pigs in meat quality class E,"pigs [5]; class E >58.75% lean-meat, feeds AFC2, AFC3, AFC4, control 33",38%
same,Distribution of slaughtered pigs in meat quality class O,pigs [5]; [11],1%
same,Distribution of slaughtered pigs in meat quality class P,pigs [5]; [12],0%
same,Distribution of slaughtered pigs in meat quality class R,"pigs [5]; class R >53.9% lean-meat, feeds AFC2, AFC3, AFC4, control 11",3%
same,Distribution of slaughtered pigs in meat quality class S,"pigs [5]; class S >60.85% lean-meat, Group 2 feed AFC2, Group 3 AFC3, Group 4 AFC4, 330 pigs per group, control 30",40%
same,Distribution of slaughtered pigs in meat quality class U,"pigs [5]; class U >55.9% lean-meat, feeds AFC2, AFC3, AFC4, control 22",18%
same,% of all pigs (carcasses classified as S and E quality),"pigs [5]; sixth experiment, control 63%",78%
